From US9434687B2, “Detection of synthetic cannabinoids” (priority 2011, dated 2016)

Assays:
Type in all cases: binding, sheep
[1] = test system: IgG fraction of antiserum raised to Immunogen I; settings: Antibody to Immunogen I; cross-reactants at 100 ng/ml; 1000 ng/ml; standard JWH-018
Outline: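 Plates were coated with the IgG fraction of sheep antiserum raised to Immunogen I and incubated with standards (JWH-018, 0-40 ng/ml) plus hapten-HRP conjugate for 1 h at 25° C. Detection used TMB, read at 450 nm. IC50 was taken from a 4-parameter fit as the concentration giving half the zero-standard OD.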

[2] = test system: IgG fraction of antiserum raised to Immunogen II; assay: Competitive ELISA, antibody RS1833B12 to Immunogen II, tracer ESC4555 (Example 36); settings: Antibody to Immunogen II; cross-reactants at 100 ng/ml; 1000 ng/ml; standard JWH-018
Experimental: An aqueous solution of each immunogen was formulated with Freund's Complete Adjuvant (FCA) to form an emulsion consisting of 2 mg/ml*immunogen in 50% (v/v) FCA. Three sheep were immunised with this emulsion (1° immunisation), 0.25 ml being intramuscularly injected at each of four sites in the flank of each animal. Subsequent immunizations (boosts) contained 1 mg/ml*immunogen. All boosts were emulsified in 50% (v/v) Freund's Incomplete Adjuvant (FIA) and were administered in the same manner as the 1° immunisation, at monthly intervals. Blood sampling took place 7 to 14 days after each boost. *The general procedure for immunogen administration is outlined above, however, it was necessary to deviate from this protocol in some cases, due to reduced immunogen concentrations (Immunogens II, IV, VII and VIII) and/or amount available (Immunogen VIII). Any deviations from the protocol described are outlined in Table 5 below and highlighted in bold.
The appropriate antibody coating dilution was determined using standard ELISA checkerboard techniques. The plate was incubated overnight at 4° C., washed 4 times over 10 minutes with Tris buffered saline containing Tween 20 (TBST) and tapped dry. […] 75 μl of conjugate (appropriate hapten-HRP) diluted in Tris buffer (pH 7.2) containing EDTA, D-mannitol, sucrose, thimerosal and BSA, was added to each of the wells. The appropriate dilution of conjugate was also determined using standard ELISA checkerboard techniques. The plate was incubated at 25° C. for 1 hour. Excess unbound conjugate was removed by washing 6 times over a 10 minute period with TBST. 125 μl of tetramethylbenzidine (TMB) substrate solution was added to each well of the plate that was then incubated for 20 minutes in the dark at room temperature. The reaction was terminated by addition of 125 μl 0.2M H2SO4 to each well. The absorbance was then measured at 450 nm using a microtiter plate reader. The data are inputted to a computer program called ‘KC Junior’. It is a 4 parameter fit curve and allow the calculation of concentrations between the standard runs.
In a similar manner to that described above, the wells of a 96-well microtiter plate were coated with the IgG fraction of the antiserum raised to Immunogens I or II.
The data set out in Tables 7-10 are generated using antibodies raised against the indicated Immunogens in a competitive binding assay with the indicated tracers, using the indicated standards
Using the calibration curves generated and employing a single level of cross reactants, these were used to determine the cross-reactivity of each immunoassay with these substances. These are the standards used for the IC50 and cross-reactivity data generation: […]

[3] = test system: IgG fraction of antiserum raised to Immunogen IV; settings: Antibody to Immunogen IV; cross-reactants at 100 ng/ml; 1000 ng/ml; standard JWH-018
[4] = test system: IgG fraction of antiserum raised to Immunogen VIII; settings: Antibody to Immunogen VIII; cross-reactants at 100 ng/ml; 1000 ng/ml; standard JWH-018
[5] = test system: IgG fraction of antiserum raised to Immunogen VII; settings: Antibody to Immunogen VII; cross-reactants at 100 ng/ml; 1000 ng/ml; standard JWH-015

CCCCn1c(C)c(C(=O)c2cccc3ccccc23)c2ccccc21 [JWH-016]
% B/B0 [1]: 20.71% | % B/B0 [2]: 68.73% | % B/B0 [3]: 91.14% | % B/B0 [4]: 75.24% | % B/B0 [5]: 19.31%

CCCCCn1cc(C(=O)c2cccc3ccccc23)c2ccc(OC)cc21 [JWH-018 6-methoxyindole analogue]
% B/B0 [1]: 10.55% | % B/B0 [2]: 20.44% | % B/B0 [3]: 90.65% | % B/B0 [4]: 77.22% | % B/B0 [5]: 72.33%

CC(C)(C)Cn1cc(C(=O)c2cccc3ccccc23)c2ccccc21 [JWH-018 N-(2,2-dimethylpropyl) isomer]
% B/B0 [1]: 3.89% | % B/B0 [2]: 60.15% | % B/B0 [3]: 80.42% | % B/B0 [4]: 95.09% | % B/B0 [5]: 52.46%

CCCCCCn1cc(C(=O)c2cccc3ccccc23)c2ccccc21 [JWH-019]
% B/B0 [1]: 7.22% | % B/B0 [2]: 15.42% | % B/B0 [3]: 21.96% | % B/B0 [4]: 74.50% | % B/B0 [5]: 70.05%

CCCCCCCn1cc(C(=O)c2cccc3ccccc23)c2ccccc21 [JWH-020]
% B/B0 [1]: 16.03% | % B/B0 [2]: 35.75% | % B/B0 [3]: 73.73% | % B/B0 [4]: 100.73% | % B/B0 [5]: 81.30%

C=CCCCn1cc(C(=O)c2cccc3ccccc23)c2ccccc21 [JWH-022]
% B/B0 [1]: 4.51% | % B/B0 [2]: 11.72% | % B/B0 [3]: 10.61% | % B/B0 [4]: 28.94% | % B/B0 [5]: 58.44%

CC(O)CCn1cc(C(=O)c2cccc3ccccc23)c2ccccc21 (stereo not drawn) [JWH-073 N-(3-hydroxybutyl) metabolite]
% B/B0 [1]: 3.10% | % B/B0 [2]: 54.52% | % B/B0 [3]: 53.52% | % B/B0 [4]: 94.04% | % B/B0 [5]: 43.39%

O=C(c1cccc2ccccc12)c1cn(CCCCO)c2ccccc12 [JWH-073 N-(4-hydroxybutyl) metabolite]
% B/B0 [1]: 3.22% | % B/B0 [2]: 60.01% | % B/B0 [3]: 52.61% | % B/B0 [4]: 57.99% | % B/B0 [5]: 48.81%

O=C(O)CCCn1cc(C(=O)c2cccc3ccccc23)c2ccccc21 [JWH-073 N-butanoic acid metabolite]
% B/B0 [1]: 6.88% | % B/B0 [2]: 92.20% | % B/B0 [3]: 98.95% | % B/B0 [4]: 94.98% | % B/B0 [5]: 60.01%

CCCCCn1cc(C(=O)c2cccc3c(OC)cccc23)c2ccccc21 [JWH-081 5-methoxynaphthyl isomer]
% B/B0 [1]: 18.51% | % B/B0 [2]: 60.90% | % B/B0 [3]: 6.24% | % B/B0 [4]: 26.56% | % B/B0 [5]: 94.16%

Cc1ccc(C(=O)c2cn(CCCCCO)c3ccccc23)c2ccccc12 [JWH-122 N-(5-hydroxypentyl) metabolite]
% B/B0 [1]: 42.80% | % B/B0 [2]: 71.76% | % B/B0 [3]: 25.72% | % B/B0 [4]: 48.67% | % B/B0 [5]: 83.65%

CCCCCn1cc(C(=O)c2ccc(C)c3ccccc23)c2ccccc21 [JWH-122]
% B/B0 [1]: 62.98% | % B/B0 [2]: 44.55% | % B/B0 [3]: 3.94% | % B/B0 [4]: 14.43% | % B/B0 [5]: 89.37%

O=C(c1cccc2ccccc12)c1cn(CCN2CCOCC2)c2cccc(O)c12 [JWH-200 4-hydroxyindole metabolite]
% B/B0 [1]: 44.97% | % B/B0 [2]: 78.17% | % B/B0 [3]: 87.88% | % B/B0 [4]: 91.82% | % B/B0 [5]: 91.15%

O=C(c1cccc2ccccc12)c1cn(CCN2CCOCC2)c2ccc(O)cc12 [JWH-200 5-hydroxyindole metabolite]
% B/B0 [1]: 12.61% | % B/B0 [2]: 64.99% | % B/B0 [3]: 97.53% | % B/B0 [4]: 90.88% | % B/B0 [5]: 82.42%

O=C(c1cccc2ccccc12)c1cn(CCN2CCOCC2)c2cc(O)ccc12 [JWH-200 6-hydroxyindole metabolite]
% B/B0 [1]: 7.27% | % B/B0 [2]: 61.65% | % B/B0 [3]: 94.41% | % B/B0 [4]: 83.20% | % B/B0 [5]: 65.52%
